Source: patent publication US20050288377A1, “Use of calcimimetic as an adynamic bone disease related treatment” (priority 2004, published 2005)
Values joined by “and” are separate entries in the source; they are usually repeats but may differ in a detail not shown here. Identical values can stand only once. Counter-ions that a name gives are not always drawn. Like-named read-outs stand apart in the source and are kept apart here.

How the values were obtained:
[1] = system: parathyroid cancer patients; test: PTH levels and ratio in parathyroid cancer patients receiving Cinacalcet HCl (Table 2); format: in vivo, human; conditions: SCR or D1 visit: prior to Cinacalcet HCl treatment (baseline); hydrochloride
Excerpt: See M. R. Rubin, et al., “A Molecular Form of PTH Distinct From PTH (1-84) is Produced in Parathyroid Carcinoma” (J. Bone & Mineral Metab., forthcoming).

[2] = system: ESRD subjects; test: Study of ESRD subjects treated with Cinacalcet and HECTOROL (Table 3); format: in vivo, human; conditions: unlabelled summary line over patients 1-11
Excerpt: Table 3 provides the results of a study of several ESRD subjects treated with Cinacalcet and HECTOROL™ (Doxercalciferol synthetic Vitamin D). Pre and post treatment levels of total PTH, 1-84 PTH, 7-84 PTH, calcium, phosphate and alkaline phosphatase are provided together with the pre and post treatment ratio of 1-84 PTH/7-84 PTH and the pre and post treatment product of (calcium) x (phosphate).

[3] = system: chronic kidney disease patients on dialysis; conditions: product insert; cited from earlier work
[4] = system: 1-84 PTH/7-84 PTH ratio; conditions: cited from earlier work

## C[C@@H](NCCCc1cccc(C(F)(F)F)c1)c1cccc2ccccc12 [Cinacalcet HCl]
[1]
  CPTH/TPTH: 1.5 and 1.6
[2]; post treatment
  Post CIP (7-84 PTH): 342.2
  Post Ca: 8.7
  Post Phos: 5.6
  Post alk phos: 240.5
  Post-CAP (1-84 PTH): 458.3
  Post-Total (total PTH): 800.4
  Prot Ca xP: 49.2
[2]; pre treatment
  Pre Ca: 9.5
  Pre Ca xP: 55.7
  Pre Phos: 5.9
  Pre alk phos: 220.2
  Pre-CAP (1-84 PTH): 508.8
  Pre-CIP (7-84 PTH): 355.3
  Pre-Total (total PTH): 864.0
[3]
  risk for developing adynamic bone disease: carries a risk for developing adynamic bone disease

## C=C1/C(=C\C=C2/CCC[C@]3(C)[C@@H]([C@H](C)/C=C/[C@H](C)C(C)C)CC[C@@H]23)C[C@@H](O)C[C@@H]1O [Hectarale, Doxercalciferol]
[4]; 2.5 μgm/dose, Nov. 1 2001 (Ca Nov. 8)
  Ca: 8.1 mg/dL
[4]; 2.5 μgm/dose, Nov. 1 2001 (PO4 Nov.5-7)
  PO4: 5.7 mg/dL
[4]; 2.5 μgm/dose, Nov. 1 2001
  CAP: 1462 pgm/mL
  CAP/CIP: 6.74
  CIP: 217 pgm/mL
  Ca × PO4: 46
  Intact PTH: 1679 pgm/mL
[4]; 4 μgm/dose, Aug. 17 2001 (Ca Sept. 21)
  Ca: 8.3 mg/dL
[4]; 4 μgm/dose, Aug. 17 2001 (PO4 Sept. 21)
  PO4: 7.0 mg/dL
[4]; 4 μgm/dose, Aug. 17 2001
  CAP: 1735 pgm/mL
  CAP/CIP: 0.95
  CIP: 1824 pgm/mL
  Ca × PO4: 58
  Intact PTH: 3559 pgm/mL
